Laboratory results taken from patent US4291024A, “Cytotoxic liponucleotide analogs” (priority 1980, dated 1981).
Where a name gives a salt, the structure may show the parent alone.

Key:
[1] = tested on: murine leukemic cells L5178Y; experiment: Inhibition of reproduction of murine leukemic cells L5178Y by cytotoxic liponucleotide analogs - 72 hours; type: cell-based; details: for IC50: read-out: MOLAR CON[…] 50 PERCENT INHIBITION, 50% decrease in number of doublings vs untreated controls, read-out: MOLAR CONCENTRATION CAUSING 50 PERCENT INHIBITION
Method: The leukemic cells L5178Y were grown from an inoculum of 4×10^3 cells per ml for a period of 72 hours in the presence of different levels (10^-4 -10^-7 M) of drugs.

[2] = tested on: CMI-DTH reactions; experiment: CMI-DTH reactions; type: in vivo, mouse
[3] = tested on: human colon carcinoma HCT-15 cells; experiment: Antitumor activity against human colon carcinoma in immunosuppressed mice; type: in vivo, mouse; details: for TUMOR WEIGHT: control 89.7 ± 4.9
Method: Male B6D2F1 mice (18-22 g, 4/group) were immunosuppressed with 0.25 ml subcutaneous injection of ATS on days -1,0,1,3 and 6. Human colon carcinoma cells (5.0×10^6 cells/mouse) were inoculated subcutaneously into an area slightly above the left inguinal region on day 0. The drug dissolved in saline to a volume of 0.1 ml was injected intraperitoneally once a day for four consecutive days. Saline was administered to the controls. The percent change in body weight from the onset to the day of weighing the tumor was used as an indication of drug toxicity.

[4] = tested on: leukemia L5178Y ascites cells; experiment: Survival time of mice bearing leukemia L5178Y ascites cells, Ia-11-diglyceride; type: in vivo, mouse; details: for AVERAGE SURVIVAL (DAYS ± S.E.): control 17.6 ± 0.2; for prolongation of survival times: mice bearing leukemia L5178Y cells
Method: Mice (10/group) were inoculated with L5178Y cells (5×10^6 cells/mouse) and drug injections were begun on the second day. The drug in a volume of 0.1 ml was injected intraperitioneally once a day for four consecutive days. Saline was administered to the controls. The percent change in body weight from the onset to the termination of therapy was used as an indication of drug toxicity.

[5] = tested on: mouse antisheep erythrocyte antibody-forming cells; experiment: Suppression of IgM and IgG mouse antisheep erythrocyte antibody-forming cells (AFC); type: in vivo
[6] = tested on: leukemic cells L5178Y; experiment: Animal antitumor activity of liponucleotides (leukemic cell kill in the peritoneal cavity); type: in vivo, mouse; details: for PERCENT SURVIVAL: L5178Y i.p., control 100
Method: The leukemic cells L5178Y (4×10^5 cells/mouse) were injected intraperitoneally on day 0. Drugs at various dosages (20 mg/kg, 40 mg/kg and 100 mg/kg) were injected on day 5 and incubated for 2 hours. At the end of the incubations, 5.0 ml of Fischer's medium containing 10% horse serum (FMS) was injected […].). After mixing, 1.0 ml aliquots were withdrawn and transferred to culture tubes containing 5.0 ml of FMS. Cells were centrifuged immediately, washed 2 xs and resuspended in 5.0 ml of FMS. Cell viability was determined by the dilute agar colony method.

[7] = tested on: murine leukemic cells L5178Y; experiment: Inhibition of reproduction of murine leukemic cells L5178Y by liponucleotides - 2 hours (dilute agar colony method); type: cell-based; details: for viability at 100 µM / viability at 10 µM / viability at 1 µM / viability at 0.1 µM: Mus musculus, L5178Y, 2 hours, untreated control normalized to 100%, read-out: PERCENT SURVIVAL; for viability at 100 µM: 1 × 10^-4 M; for viability at 10 µM: 1 × 10^-5 M; for viability at 1 µM: 1 × 10^-6 M; for viability at 0.1 µM: 1 × 10^-7 M
Method: L5178Y cells (2×10^5 /ml) in the exponential phase of growth were incubated singly with drugs for a period of 2 hours at concentrations of […] to 1×10^-7 M. Cell viability was determined by the dilute agar colony method. Each observation represents the mean value of three experimentations with four replicates per experiment. A minimum of 200 colonies were counted for each group. The cloning efficiency of the untreated cells was approximately 75%; all values were normalized to 100%.

[8] = tested on: leukemia L5178Y ascites cells; experiment: Survival time of mice bearing leukemia L5178Y ascites cells, Ia-11-dipalmitin; type: in vivo, mouse; details: for PER CENT CHANGE IN LIFE SPAN / AVERAGE SURVIVAL / PER CENT CHANGE IN WEIGHT: i.p. twice a day ×4 days; for AVERAGE SURVIVAL: control 15.0 ± 0.28; for PER CENT CHANGE IN WEIGHT: control -1.4
Method: Mice (10/group) were inoculated with L5178Y cells (5×10^6 cells/mouse) and drug injections were begun on the second day. The drug in a volume of 0.2 ml was injected intraperitoneally twice a day at a five-hour interval for four consecutive days. Distilled water was administered to the controls. The percent change in body weight from the onset to the termination of therapy was used as an indication of drug toxicity.

[9] = LD10 (lethality); type: in vivo; details: ×4 regimen
[10] = 50 mg/kg/day×4, intraperitoneal
[11] = 30 mg/kg daily dosage (first 30 line)
[12] = 30 mg/kg daily dosage (second 30 line)

CCCCCCCCCCCCCCCC(=O)OCC(COP(=O)(O)OP(=O)(O)OC[C@H]1O[C@@H](n2ccc(N)nc2=O)[C@@H](O)[C@@H]1O)OC(=O)CCCCCCCCCCCCCCC (stereo partly shown)
IC50 ([1]; Mus musculus, L5178Y, 72 hours): 14 µM

1-Beta-D-Arabinofuranosylcytosine-5'-diphosphate-L-diglyceride Diammonium Salt [Ia-11-Diglyceride]
delay of peak DTH response ([2]; 50 mg/kg, (day 4-7) or more): ≥ 3 days | immunostimulatory activity on DTH ([2]; 50 mg/kg, later periods, judged by very late rising profile of response): may have immunostimulatory activity on DTH at later periods | PER CENT OF CONTROL TUMOR WEIGHT ([3]; 25 mg/kg daily i.p. ×4 days): 68.4 ± 15.6 PER CENT | TUMOR WEIGHT ([3]; 25 mg/kg daily i.p. ×4 days): 61.3 ± 14.0 mg | PER CENT OF CONTROL TUMOR WEIGHT ([3]; 50 mg/kg daily i.p. ×4 days, *P 0.005 (1tailed "t" test)): 21.0 ± 13.5 PER CENT | TUMOR WEIGHT ([3]; 50 mg/kg daily i.p. ×4 days): 18.7 ± 12.0 mg | inhibition of tumor growth ([3]; 50 mg/kg/day×4, excised tumors weighed, vs non-treated control): 80% | % CHANGE IN LIFE SPAN ([4]; 12.5 mg/kg daily i.p. ×4 days): +29.6% | AVERAGE SURVIVAL (DAYS ± S.E.) ([4]; 12.5 mg/kg daily i.p. ×4 days): 22.0 ± 0.6 days | % CHANGE IN LIFE SPAN ([4]; 25.0 mg/kg daily i.p. ×4 days): +44.3% | AVERAGE SURVIVAL (DAYS ± S.E.) ([4]; 25.0 mg/kg daily i.p. ×4 days): 25.4 ± 1.1 days | % CHANGE IN LIFE SPAN ([4]; 50.0 mg/kg daily i.p. ×4 days): +93.2% | AVERAGE SURVIVAL (DAYS ± S.E.) ([4]; 50.0 mg/kg daily i.p. ×4 days): 34.0 ± 2.4 days | log cell kill ([4]; 50 mg/kg/day×4): 4 log | prolongation of survival times ([4]; 50 mg/kg/day×4): 93% | difference in antitumor activity in vivo vs Ia-11-dipalmitin ([4]; Table 4 compared with Table 5): significant difference in antitumor activity in vivo | in vivo activity relative to cytosine arabinoside ([4]; leukemia L5178Y in vivo (Table 4)): significantly more active than cytosine arabinoside | antitumor activity in culture relative to Ia-11-dipalmitin ([1]; in culture (Table 2)): superior activity | IgG AFC/10^6 spleen cells [5, 10]: background levels | IgG AFC/spleen [5, 10]: background levels | IgM AFC/10^6 spleen cells [5, 10]: background levels | IgM AFC/spleen [5, 10]: background levels | suppression of IgM and IgG AFC relative to cytosine arabinoside "equivalent" ([5]; mouse, in vivo): more pronounced suppression

CCCCCCCCCCCCCCCC(=O)OCC(COP(=O)(O)OP(=O)(O)OC[C@H]1O[C@@H](n2ccc(N)nc2=O)[C@H](O)[C@@H]1O)OC(=O)CCCCCCCCCCCCCCC (mixture of isomers) [Ia-1-Dipalmitin, 1-Beta-D-Ribofuranosylcytosine-5'-Diphosphate-DL-1,2-Dipalmitin Diammonium Salt]
PERCENT SURVIVAL ([6]; 20 mg/kg on day 5, 2 hours): 57% | PERCENT SURVIVAL ([6]; 40 mg/kg on day 5, 2 hours): 54% | PERCENT SURVIVAL ([6]; 100 mg/kg on day 5, 2 hours): 43% | activity relative to the CLNA molecule containing the beta-D-arabinofuranosyl moiety ([6]; peritoneal cavity (Table 3)): activity comparable to the CLNA molecule | viability at 100 µM [7]: 65.7 ± 5.69% | viability at 10 µM [7]: 76.7 ± 6.66% | viability at 1 µM [7]: 94.7 ± 4.04% | viability at 0.1 µM [7]: 94.7 ± 5.03% | activity relative to the CLNA molecule containing the beta-D-arabinofuranosyl moiety ([7]; in culture (Table 1)): activity comparable to the CLNA molecule

CCCCCCCCCCCCCCCC(=O)OCC(COP(=O)(O)OP(=O)(O)OC[C@H]1O[C@@H](n2ccc(N)nc2=O)[C@@H](O)[C@@H]1O)OC(=O)CCCCCCCCCCCCCCC (mixture of isomers) [Ia-11-Dipalmitin, 1-Beta-D-Arabinofuranosylcytosine-5'-diphosphate-DL-1,2-dipalmitin Diammonium Salt]
PERCENT SURVIVAL ([6]; 20 mg/kg on day 5, 2 hours): 61% | PERCENT SURVIVAL ([6]; 40 mg/kg on day 5, 2 hours): 58% | PERCENT SURVIVAL ([6]; 100 mg/kg on day 5, 2 hours): 43% | PERCENT INHIBITION AT 10^-4 M ([1]; 10^-4 M, 72 hours, listed as ara-CDP-dipalmitin, Diammonium Salt): less than 50% | inhibition at 100 µM ([1]; Mus musculus, L5178Y, 72 h, 10^-4 M, 72 hours, read-out: PERCENT INHIBITION AT 10^-4 M): 42% | PER CENT CHANGE IN LIFE SPAN [8, 11]: +24.0 PER CENT | AVERAGE SURVIVAL [8, 11]: 18.6 ± 0.22 days | PER CENT CHANGE IN WEIGHT [8, 11]: -5.0 PER CENT | PER CENT CHANGE IN LIFE SPAN [8, 12]: +32.0 PER CENT | AVERAGE SURVIVAL [8, 12]: 19.8 ± 0.82 days | PER CENT CHANGE IN WEIGHT [8, 12]: -5.86 PER CENT | PER CENT CHANGE IN LIFE SPAN ([8]; 50 mg/kg daily dosage): +37.3 PER CENT | AVERAGE SURVIVAL ([8]; 50 mg/kg daily dosage): 20.6 ± 0.76 days | PER CENT CHANGE IN WEIGHT ([8]; 50 mg/kg daily dosage): -3.5 PER CENT | in vivo activity relative to cytosine arabinoside ([8]; leukemia L5178Y in vivo (Table 5)): significantly more active than cytosine arabinoside | viability at 100 µM [7]: 65 ± 1.73% | viability at 10 µM [7]: 84.3 ± 0.58% | viability at 1 µM [7]: 90 ± 4.58% | viability at 0.1 µM [7]: 94 ± 3%

Nc1ccn([C@@H]2O[C@H](COP(=O)(O)O)[C@@H](O)[C@@H]2O)c(=O)n1 [Cytosine Arabinoside 5'-Phosphate]
IC50 ([1]; Mus musculus, L5178Y, 72 hours): 0.27 µM | viability at 100 µM [7]: 54.8 ± 1.54% | viability at 10 µM [7]: 87.5 ± 5.18% | viability at 1 µM [7]: 93 ± 8.9% | viability at 0.1 µM [7]: 99 ± 5.21%

Nc1ccn([C@@H]2O[C@H](CO)[C@@H](O)[C@@H]2O)c(=O)n1 [Cytosine Arabinoside, cytosine arabinoside, reference compound]
suppression of CMI-DTH reactions ([2]; 11 or 50 mg/kg): poorly suppressed | inhibition of tumor cell growth ([3]; 200 mg/kg/day×4, determined by palpation): no inhibition of tumor cell growth | change in life spans as compared with control animals ([4]; 13 mg/kg×4 (dose "equivalent" to 50 mg of Ia-11-diglyceride by molecular weight), inferred): no change in life spans | % CHANGE IN LIFE SPAN ([4]; 50.0 mg/kg daily i.p. ×4 days): +17.6% | AVERAGE SURVIVAL (DAYS ± S.E.) ([4]; 50.0 mg/kg daily i.p. ×4 days): 20.7 ± 5.4 days | % CHANGE IN WEIGHT ([4]; 50.0 mg/kg daily i.p. ×4 days, control +0.66): -6.90% | prolongation of survival times ([4]; 50 mg/kg/day×4): 18% | LD10 [9]: 71 mg/kg/day×4 | reduction of peak (day 4) number of IgM AFC/10^6 spleen cells ([5]; 11 mg/kg/day×4): 63% | reduction of peak (day 5) number of IgG AFC/10^6 spleen cells ([5]; 11 mg/kg/day×4): 55% | peak (day 5) number of IgG AFC/10^6 spleen cells ([5]; 11 mg/kg/day×4, from 494±123): 224±72 AFC/10^6 spleen cells | peak (day 4) number of IgM AFC/10^6 spleen cells ([5]; 11 mg/kg/day×4, from 495±130): 180±28 AFC/10^6 spleen cells | AFC ([5]; 50 mg/kg/day×4): background levels
